Patent publication US20120076757A1, “COMPOSITION FOR TRANSMUCOSAL DELIVERY OF POLYPEPTIDES” (Cephalon, Inc., priority 2007, published 2012)
Values belong to the compound of their own block, whether it stands above or below them.

Assays:
[1] = system: cultured human buccal carcinoma cells (SqCC/Y1 cells)
Description: (§1) In vitro permeability testing was conducted as follows. Starting with acrylic inserts having one end sealed with 0.6 cm square area inserts of acrylic and polycarbonate membranes without cells, the cultured human buccal carcinoma cells (SqCC/Y1 cells) were grown on the membrane surface in culture medium for a period of 24 hours. The culture medium was removed from the top of the insert (“air-lifting” process), wherein the cells continued to receive nutrients from the culture medium beneath the inserts. Under these conditions, the cells were grown for a period of 7 to 10 days so as to grow the cells to multilayer confluence on the polycarbonate membrane, thereby increasing cellular density to a multi-layer, tissue-like barrier resembling that of buccal mucosal tissue.
(§2) The assay was performed by rinsing the inserts with Krebs-Ringer buffer solution without sodium bicarbonate (KRB) and inspecting for uniformity by measuring the transepithelial electrical resistance (TEER). When the average electrical resistance necessary was 350 ohms or greater, the inserts were selected for permeability testing, thereby ensuring consistent permeability barrier thickness and distribution.
(§3) The inserts were separated into the groups (e.g., n=3) with closely similar average TEER values (of the group) to be used in testing particular formulations of active pharmaceutical ingredients (i.e., polypeptide). For a given bile salt, for example, the sample groups were as follows: • 1) polypeptide alone; • 2) polypeptide in combination with bile salt; • 3) polypeptide in combination with effervescent excipient composition (Excipient Formula 1) powder; • 4) polypeptide in combination with bile salt (varying concentrations) and effervescent excipient composition (Excipient Formula 1) powder.
(§4) The inserts were placed into cell culture wells with a defined volume of KRB and incubated at 37° C. on shaker tables set at 100 rpm. Thus, the cells were exposed to the given active ingredient (polypeptide) without and in combination with the various excipient formulations described.
(§5) Samples were removed from the basolateral fluid every 10 minutes for a period of one hour, and the removed fluid was replaced with an equal volume of KRB. At the end of the hour, the residual fluid within the insert was recovered and stored, the insert was rinsed with KRB, and the TEER value again measured. The TEER differences between the starting step TEER and final step TEER were recorded.
(§6) The samples from the basolateral wells were analyzed for the active ingredient (polypeptide) using various techniques. The amount of active in the well was calculated and corrected for sampling loss.
(§7) Enhancement Ratio (ER) is equal to the ratio of the Papp with absorption enhancer divided by the Papp without absorption enhancer. Thus, this technique was used for each of the proposed permeability enhancement compositions below.
(§8) The permeability of fluorescently-labeled polypeptide with and without enhancement was measured by the in vitro permeability assay. The amount of polypeptide permeating through the cells/tissue into the basolateral fluid was measured and the apparent permeability coefficient (Papp) for each polypeptide sample was calculated.

[2] = Anaesthetized dog model, desmopressin oral transmucosal (buccal) permeation, serum by LC/MS/MS; assay type: in vivo
Description: Anesthetized dog models were used to evaluate transmucosal permeation of polypeptide compositions prepared in accordance with the invention. Mature mongrel large-breed (15-35 kg) dogs were screened for medical conditions to qualify. For testing, the dogs were anaesthetized, placed on their right or left side, and cannulated via the cephalic vein. A Teflon ring was attached to the buccal mucosa in a horizontal position to form a reservoir. Biologically active polypeptides to be evaluated were deposited, with or without enhancer components, onto the buccal mucosa surrounded by the ring. Depending upon the experiment, active polypeptides were deposited in the form of solution, dry powder or solid dosage form (tablet). Blood samples were taken every 10 minutes for a period of 2 hours, with additional samples taken up to 4 hours depending upon the protocol. The active-containing compositions were removed from the reservoir at 60 minutes and the reservoir rinsed twice.
At 2 hours, the dog is removed from anesthesia and the ring is removed from its buccal mucosa. Following recovery from anesthesia, subsequent blood samples are taken from the awake dogs. Blood samples are allowed to clot, the serum is separated by centrifugation, and the serum is frozen at −20° or −80° C., depending upon the protocol until analyzed for the active polypeptide content.
Desmopressin (deamino-Cysl-D-Arg Vasopressin, or D-Arg Vasopresin) was tested for buccal permeation into the blood stream by various administration forms: solution, powder, and compressed tablet.
Desmopressin-containing tablets for the experiment were prepared by combining 200 mg of effervescent formulation described in Example 1A (EF 1) with 20 mg sodium taurocholate. This mixture was added directly into a vial of lyophilized desmopressin. […]
Tablets prepared accordingly were tested in dogs per protocol described above. […] Desmopres sin was measured using LC/MS/MS analysis o the serum samples.

[3] = system: cultured human buccal carcinoma cells (SqCC/Y1 cells); test: In vitro permeability assay (apparent permeability coefficient Papp across multilayer buccal cell culture); details: ELISA
Description: as §1, §2, §3, §4, §5, §6, §7, §8

[4] = Anaesthetized dog model, salmon calcitonin oral transmucosal permeation from effervescent tablets; assay type: in vivo; details: adding 2.5% NaTC or more to the effervescent formulation
Description: Anesthetized dog models were used to evaluate transmucosal permeation of polypeptide compositions prepared in accordance with the invention. Mature mongrel large-breed (15-35 kg) dogs were screened for medical conditions to qualify. For testing, the dogs were anaesthetized, placed on their right or left side, and cannulated via the cephalic vein. A Teflon ring was attached to the buccal mucosa in a horizontal position to form a reservoir. Biologically active polypeptides to be evaluated were deposited, with or without enhancer components, onto the buccal mucosa surrounded by the ring. Depending upon the experiment, active polypeptides were deposited in the form of solution, dry powder or solid dosage form (tablet). […]
At 2 hours, the dog is removed from anesthesia and the ring is removed from its buccal mucosa. […] Blood samples are allowed to clot, the serum is separated by centrifugation, and the serum is frozen at −20° or −80° C., depending upon the protocol until analyzed for the active polypeptide content.
Salmon calcitonin (s-Ct) was tested for buccal permeation into the blood stream of anesthetized dogs with effervescent compressed tablets containing s-Ct and the bile salt (sodium taurocholate) at 0%, 2.5%, 5.0%, and 10% bile salt. […] The following table contains the formulation information of the tablets evaluated. […]

[5] = INTRON A acquired from Schering Corp.; cited from earlier work
[6] = with bile salt (sodium taurocholate) alone

- transport/permeation of the polypeptide across the mucosal tissue in the in vivo model ([2]; desmopressin with combination of bile salt and effervescent formulation): appears to appreciably enhance
Compound: NC(=O)CC[C@@H]1NC(=O)[C@H](Cc2ccccc2)NC(=O)[C@H](Cc2ccc(O)cc2)NC(=O)CCSSC[C@@H](C(=O)N2CCC[C@H]2C(=O)N[C@H](CCCN=C(N)N)C(=O)NCC(N)=O)NC(=O)[C@H](CC(N)=O)NC1=O [Desmopressin, deamino-Cysl-D-Arg Vasopressin]
- in vitro permeation of desmopressin across mucosal tissue (Papp) [1]: does not appear to appreciably increase polypeptide permeation
- in vitro transport/permeability of desmopressin across mucosal tissue (Papp) [1]: appears to exhibit appreciable enhancement
- permeation of the polypeptide across the mucosal tissue in the in vivo model ([2]; desmopressin in combination with the bile salt alone): does not appear to appreciably increase the permeation
- permeation of the polypeptide across the mucosal tissue in the in vivo model ([2]; desmopressin with the effervescent formulations alone): does not appear to appreciably increase the permeation

- transmucosal permeability of s-Ct in anesthetized dogs [4]: large improvement in permeability
Compound: CC(C)C[C@H](NC(=O)[C@H](CCCCN)NC(=O)CNC(=O)[C@H](CC(C)C)NC(=O)[C@@H](NC(=O)[C@@H]1CSSC[C@H](N)C(=O)N[C@@H](CO)C(=O)N[C@@H](CC(N)=O)C(=O)N[C@@H](CC(C)C)C(=O)N[C@@H](CO)C(=O)N[C@@H]([C@@H](C)O)C(=O)N1)C(C)C)C(=O)N[C@@H](CO)C(=O)N[C@@H](CCC(N)=O)C(=O)N[C@@H](CCC(=O)O)C(=O)N[C@@H](CC(C)C)C(=O)N[C@@H](Cc1c[nH]cn1)C(=O)N[C@@H](CCCCN)C(=O)N[C@@H](CC(C)C)C(=O)N[C@@H](CCC(N)=O)C(=O)N[C@H](C(=O)N[C@@H](Cc1ccc(O)cc1)C(=O)N1CCC[C@H]1C(=O)N[C@@H](CCCNC(=N)N)C(=O)N[C@H](C(=O)N[C@@H](CC(N)=O)C(=O)N[C@H](C(=O)NCC(=O)N[C@@H](CO)C(=O)NCC(=O)N[C@H](C(=O)N1CCC[C@H]1C(N)=O)[C@@H](C)O)[C@@H](C)O)[C@@H](C)O)[C@@H](C)O [s-CT]
- permeation result of combination compared with individual effects ([3]; s-CT + taurocholate + EF 2): greater than the sum of the individual permeation effects
- in vitro permeation of s-CT across mucosal tissue (Papp) ([3]; with EF 2 alone): does not appear to exhibit an increase in permeation
- in vitro permeation of s-CT across mucosal tissue (Papp) [3, 6]: does not appear to exhibit an increase in permeation
- in vitro permeation/transport of s-CT across mucosal tissue (Papp) ([3]; with effervescent formulation (EF 2) and 1% or 2% bile salt): does appear to exhibit appreciably enhanced permeation/transport

Compound: IFNα
- specific activity [5]: 260 million IU per mg protein
- permeation result of combination compared with individual effects ([3]; IFNα + taurocholate + EF 1): greater than the sum of the individual permeation effects
- in vitro permeation of IFNα across mucosal tissue (Papp) ([3]; with 1% or 2% bile salt and effervescent composition (EF 1)): does appears to produce appreciable enhancement
- in vitro permeation of IFNα across mucosal tissue (Papp) ([3]; with EF 1 alone): does not appear to appreciably increase the permeation
- in vitro permeation of IFNα across mucosal tissue (Papp) ([3]; with bile salt alone): does not appear to appreciably increase the permeation

Compound: IGF-1: Insulin-like Growth Factor-1, 70 amino acids with 3 internal disulfide bonds
- permeation result of combination compared with individual effects ([3]; IGF-1 + taurocholate + EF2): greater than the sum of the individual permeation effects
- in vitro permeation of IGF-1 across mucosal tissue (Papp) ([3]; with EF 2 alone): does not appear to exhibit an increase in permeation
- in vitro permeation/transport of IGF-1 across mucosal tissue (Papp) ([3]; with EF2 and 1% bile salt): appears to exhibit enhanced permeation/transport
- in vitro permeation of IGF-1 across mucosal tissue (Papp) [3, 6]: does not appear to exhibit an increase in permeation
